Three compounds from PMC10205801 (2023) can be followed below.

For orientation: Kd means a measure of binding affinity in units of concentration.

Assay [1] has as its system A16U + U38G (Wobble Beetroot) (RNA, aptamer) GCGCCGGUUAGGCAGUGGUGGGUGGUGUGGAGGAGUAGCUGUCCGGCGC
The assay can be described thus: fluorescence titration. The following applies: 150 mM K+, 5 mM Mg2+; 20 mM MOPS-KOH pH 7.0; RNA titrated into dye.

The subject of assay [2] is Beetroot (RNA, aptamer) GCGCCGGUUAGGCAGAGGUGGGUGGUGUGGAGGAGUAUCUGUCCGGCGC
Briefly: fluorescence titration. The following applies: 150 mM K+, 5 mM Mg2+; 20 mM MOPS-KOH pH 7.0; RNA titrated into dye.

Assay [3] concerns F30-wild-type Beetroot / Wobble Beetroot heterodimer (RNA, aptamer) GGAGCCAUGUGUAUGUGGUCCGCGCCGGUUAGGCAGAGGUGGGUGGUGUGGAGGAGUAUCUGUCCGGCGCGGACCACAUACUCUGAUGAUCCUUCGGGAUCAUUCAUGGCUCC/GCGCCGGUUAGGCAGUGGUGGGUGGUGUGGAGGAGUAGCUGUCCGGCGC
The assay can be described thus: fluorescence emission spectrum. The following applies: 150 mM K+, 5 mM Mg2+; 20 mM MOPS-KOH pH 7.

Assay [4] relates to J1/2 deletion (RNA, aptamer) GCGCCGGGCAGAGGUGGGUGGUGUGGAGGAGUAUCUGUCCGGCGC
The assay can be described thus: fluorescence activation. The following applies: 150 mM K+, 5 mM Mg2+; 20 mM MOPS-KOH pH 7.0; fluorescence comparable to wild-type.

For assay [5], the system named is A16U + U38A (RNA, aptamer) GCGCCGGUUAGGCAGUGGUGGGUGGUGUGGAGGAGUAACUGUCCGGCGC
The assay can be described thus: fluorescence activation. The following applies: 150 mM K+, 5 mM Mg2+; 20 mM MOPS-KOH pH 7.0; considerably less fluorescent than wild-type.

The subject of assay [6] is A31C (RNA, aptamer) GCGCCGGUUAGGCAGAGGUGGGUGGUGUGGCGGAGUAUCUGUCCGGCGC
The assay can be described thus: fluorescence activation. Conditions: 150 mM K+, 5 mM Mg2+; 20 mM MOPS-KOH pH 7.0; fluorescence reduced at least 50% relative to wild-type.

For assay [7], the system named is F30_Beetroot (RNA, aptamer) GGAGCCAUGUGUAUGUGGUCCGCGCCGGUUAGGCAGAGGUGGGUGGUGUGGAGGAGUAUCUGUCCGGCGCGGACCACAUACUCUGAUGAUCCUUCGGGAUCAUUCAUGGCUCC
Briefly: fluorescence emission spectrum. The following applies: 150 mM K+, 5 mM Mg2+; 20 mM MOPS-KOH pH 7.

Assay [8] has as its system A31U (RNA, aptamer) GCGCCGGUUAGGCAGAGGUGGGUGGUGUGGUGGAGUAUCUGUCCGGCGC
Briefly: fluorescence activation. The following applies: 150 mM K+, 5 mM Mg2+; 20 mM MOPS-KOH pH 7.0; fluorescence reduced at least 50% relative to wild-type.

Assay [9] relates to A16C + U38G (RNA, aptamer) GCGCCGGUUAGGCAGCGGUGGGUGGUGUGGAGGAGUAGCUGUCCGGCGC
Briefly: fluorescence activation. Conditions: 150 mM K+, 5 mM Mg2+; 20 mM MOPS-KOH pH 7.0; considerably less fluorescent than wild-type.

In assay [10] the test system is Beetroot (RNA, aptamer) GCGCCGGUUAGGCAGAGGUGGGUGGUGUGGAGGAGUAUCUGUCCGGCGC
The assay can be described thus: ITC. The following applies: 150 mM K+, 5 mM Mg2+; 20 mM MOPS-KOH pH 7.0, 25 °C (methods; text gives 21 °C); two equivalent sites per dimer; per site.

For assay [11] the test system is unchanged. The assay can be described thus: co-crystal structure, 2.1 Å; fluorescence activation. The following applies: K+.

Molecules are shown by their SMILES.

Consider `CN1C(=O)/C(=C/c2cc(F)c(O)c(F)c2)N=C1/C=N/O`, for which the results for the Kd in assay [1] and in assay [2] were 7.6 ± 0.8 µM and 9.3 ± 1.5 µM, respectively. The binding entry in assay [3] is reported as “yes”.
Consider `COC(=O)/C=C/C1=NC(=C\c2cc(F)c(O)c(F)c2)/C(=O)N1C`, for which the Kd in assay [1] was 4.9 ± 1.2 µM; in assay [2], 1.55 µM; in assay [10], 0.47 ± 0.18 µM. Further, the binding result in assay [4], in [5], in assay [3], in assay [6], in assay [7] and in assay [8] was “yes” throughout. In [9], the binding entry is listed as “yes”.
Regarding `Cc1ccc2c(c1)sc(-c1ccc(N(C)C)cc1)[n+]2C`, the binding result in [11] is “yes”.
